Laboratory results: ChEMBL document CHEMBL1201862, “PubChem BioAssay data set” (2004)
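Five compound concentrations were applied to cells in 96-well plates for 48 hours; endpoints were derived by simple linear interpolation of the resulting dose-response curve. Here, GI50 denotes the concentration required for 50% inhibition of growth.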 Calls of active or inactive are those of the source. Cut-off read from the data, not from the text of the source: active = GI50 up to about 1.1 µM and inactive = higher.

Legend:
Experiment in all cases: inhibition of tumour cell growth, NCI panel, 48 h
A498 = system: A498
A549 = system: A549
CAKI-1 = system: CAKI-1
CCRF-CEM = system: CCRF-CEM
COLO 205 = system: COLO 205
DLD-1 = system: DLD-1
DMS-114 = system: DMS-114
DMS-273 = system: DMS-273
EKVX = system: EKVX
HCC 2998 = system: HCC 2998
HCT-116 = system: HCT-116
HCT-15 = system: HCT-15
HL-60 = system: HL-60
HOP-18 = system: HOP-18
HOP-62 = system: HOP-62
HOP-92 = system: HOP-92
HT-29 = system: HT-29
IGROV-1 = system: IGROV-1
K562 = system: K562
KM-20L2 = system: KM-20L2
KM12 = system: KM12
LOX IMVI = system: LOX IMVI
M19-MEL = system: M19-MEL
MCF7 = system: MCF7
MOLT-4 = system: MOLT-4
Malme-3M = system: Malme-3M
NCI-H226 = system: NCI-H226
NCI-H23 = system: NCI-H23
NCI-H460 = system: NCI-H460
NCI-H522 = system: NCI-H522
NCI/ADR-RES = system: NCI/ADR-RES
OVCAR-3 = system: OVCAR-3
OVCAR-4 = system: OVCAR-4
OVCAR-5 = system: OVCAR-5
OVCAR-8 = system: OVCAR-8
RPMI-8226 = system: RPMI-8226
RXF 393 = system: RXF 393
SF-268 = system: SF-268
SF-295 = system: SF-295
SF-539 = system: SF-539
SK-MEL-28 = system: SK-MEL-28
SK-MEL-2 = system: SK-MEL-2
SK-MEL-5 = system: SK-MEL-5
SK-OV-3 = system: SK-OV-3
SN12C = system: SN12C
SNB-19 = system: SNB-19
SNB-75 = system: SNB-75
SNB-78 = system: SNB-78
SW-620 = system: SW-620
U-251 = system: U-251
UACC-257 = system: UACC-257
UACC-62 = system: UACC-62
UO-31 = system: UO-31
XF498 = system: XF498
786-0 = system: 786-0
ACHN = system: ACHN
TK-10 = system: TK-10
LXFL 529 = system: LXFL 529
M14 = system: M14
SR = system: SR

Measured: GI50

COc1cc(/C=C/c2ccc(OC)c(OC)c2)oc(=O)c1
> 250 µM: HCT-15
inactive: A498 > 169 µM | A549 > 250 µM | CAKI-1 > 92.3 µM | CCRF-CEM > 194 µM | COLO 205 > 250 µM | DLD-1 > 250 µM | DMS-114 > 182 µM | DMS-273 > 110 µM | EKVX > 116 µM | HCC 2998 > 250 µM | HCT-116 > 250 µM | HL-60 > 91.6 µM | HOP-18 4.88 µM | HOP-62 124 µM | HOP-92 122 µM | HT-29 > 250 µM | IGROV-1 > 220 µM | K562 > 250 µM | KM-20L2 > 167 µM | KM12 > 250 µM | LOX IMVI > 250 µM | M19-MEL > 250 µM | MCF7 > 250 µM | MOLT-4 > 250 µM | Malme-3M > 250 µM | NCI-H226 > 250 µM | NCI-H23 203 µM | NCI-H460 > 230 µM | NCI-H522 > 195 µM | NCI/ADR-RES > 250 µM | OVCAR-3 > 250 µM | OVCAR-4 > 250 µM | OVCAR-5 > 250 µM | OVCAR-8 10 µM | RPMI-8226 > 250 µM | RXF 393 57 µM | SF-268 > 170 µM | SF-295 162 µM | SF-539 213 µM | SK-MEL-28 > 250 µM | SK-MEL-2 > 213 µM | SK-MEL-5 > 250 µM | SK-OV-3 > 250 µM | SN12C > 250 µM | SNB-19 > 218 µM | SNB-75 73.3 µM | SNB-78 150 µM | SW-620 > 250 µM | U-251 199 µM | UACC-257 > 250 µM | UACC-62 247 µM | UO-31 > 250 µM | XF498 > 250 µM

O=NN(CCCl)C(=O)N[C@H]1CC[C@@H](O)CC1
21.6 µM: HCT-15
inactive: A498 > 100 µM | A549 81.3 µM | CAKI-1 27.5 µM | CCRF-CEM 12.8 µM | COLO 205 24.4 µM | DLD-1 24.6 µM | DMS-114 20.7 µM | DMS-273 34.8 µM | EKVX 33.6 µM | HCC 2998 81.5 µM | HCT-116 34 µM | HL-60 18.2 µM | HOP-18 35.2 µM | HOP-62 46.3 µM | HOP-92 8.43 µM | HT-29 60.3 µM | IGROV-1 68.4 µM | K562 23.6 µM | KM-20L2 > 100 µM | KM12 67.5 µM | LOX IMVI 26.1 µM | M19-MEL 27.9 µM | MCF7 31.6 µM | MOLT-4 20.6 µM | Malme-3M 24.8 µM | NCI-H226 34.2 µM | NCI-H23 39.5 µM | NCI-H460 28.3 µM | NCI-H522 20.8 µM | NCI/ADR-RES 23.3 µM | OVCAR-3 33.2 µM | OVCAR-4 60.4 µM | OVCAR-5 > 100 µM | OVCAR-8 33 µM | RPMI-8226 14 µM | RXF 393 23.9 µM | SF-268 13.6 µM | SF-295 24 µM | SF-539 23.3 µM | SK-MEL-28 25.3 µM | SK-MEL-2 > 100 µM | SK-MEL-5 52.4 µM | SK-OV-3 > 100 µM | SN12C 36.6 µM | SNB-19 51.2 µM | SNB-75 22.6 µM | SNB-78 24.7 µM | SW-620 22.6 µM | U-251 20.6 µM | UACC-257 32.3 µM | UACC-62 13 µM | UO-31 72.4 µM | XF498 21.5 µM

CCCCCOCC(O)CO (configuration not stated)
> 100 µM: HCT-15
inactive: 786-0 > 100 µM | A498 > 100 µM | A549 > 100 µM | ACHN > 100 µM | CAKI-1 > 100 µM | COLO 205 > 100 µM | DLD-1 > 100 µM | DMS-114 > 100 µM | DMS-273 > 100 µM | EKVX > 100 µM | HCT-116 > 100 µM | HOP-18 > 100 µM | HOP-62 > 100 µM | HOP-92 > 100 µM | IGROV-1 > 100 µM | KM-20L2 > 100 µM | KM12 > 100 µM | LOX IMVI > 100 µM | Malme-3M > 100 µM | NCI-H226 > 100 µM | NCI-H23 > 100 µM | NCI-H460 > 100 µM | OVCAR-3 > 100 µM | OVCAR-4 > 100 µM | OVCAR-5 > 100 µM | OVCAR-8 > 100 µM | RXF 393 > 100 µM | SF-268 > 100 µM | SF-295 > 100 µM | SF-539 > 100 µM | SK-MEL-28 > 100 µM | SK-MEL-2 > 100 µM | SK-MEL-5 > 100 µM | SN12C > 100 µM | SNB-19 > 100 µM | SNB-78 > 100 µM | SW-620 > 100 µM | TK-10 > 100 µM | U-251 > 100 µM | UACC-257 > 100 µM | UACC-62 > 100 µM | XF498 44.6 µM

Cc1ccc(C2COc3cc(O)c(O)cc3C2)cc1 (configuration not stated)
15 µM: HCT-15
inactive: A498 86.7 µM | A549 43.6 µM | CAKI-1 15.9 µM | CCRF-CEM 1.82 µM | COLO 205 12.5 µM | DLD-1 17.5 µM | DMS-114 12.7 µM | DMS-273 16.2 µM | EKVX 20.4 µM | HCC 2998 35.1 µM | HCT-116 12.4 µM | HL-60 1.64 µM | HOP-18 43.5 µM | HOP-62 97.9 µM | HOP-92 14.4 µM | HT-29 29.7 µM | IGROV-1 14.6 µM | K562 7.28 µM | KM-20L2 35.9 µM | KM12 22.4 µM | LOX IMVI 12.1 µM | M19-MEL 19 µM | MCF7 25.9 µM | MOLT-4 4.48 µM | Malme-3M 18.7 µM | NCI-H226 45.2 µM | NCI-H23 23.4 µM | NCI-H460 55.3 µM | NCI-H522 4.06 µM | NCI/ADR-RES 15.7 µM | OVCAR-3 13.8 µM | OVCAR-4 20.4 µM | OVCAR-5 94 µM | OVCAR-8 15 µM | RPMI-8226 7.11 µM | RXF 393 11.3 µM | SF-268 13.2 µM | SF-295 32.6 µM | SF-539 22.4 µM | SK-MEL-28 13.1 µM | SK-MEL-2 19.2 µM | SK-MEL-5 18.9 µM | SK-OV-3 139 µM | SN12C 20.7 µM | SNB-19 39.4 µM | SNB-75 42 µM | SNB-78 31.6 µM | SW-620 11.1 µM | U-251 17.7 µM | UACC-257 21.3 µM | UACC-62 18.5 µM | UO-31 30 µM | XF498 9.12 µM

CC(C)(O)C(O)COc1c2c(cc3oc(=O)ccc13)OCO2 (configuration not stated)
inactive: 786-0 > 100 µM | A498 > 100 µM | A549 > 100 µM | ACHN > 100 µM | CAKI-1 > 100 µM | CCRF-CEM > 100 µM | COLO 205 > 100 µM | DLD-1 > 100 µM | DMS-114 > 100 µM | DMS-273 > 100 µM | EKVX > 100 µM | HCC 2998 > 100 µM | HCT-116 > 100 µM | HL-60 > 100 µM | HOP-18 > 100 µM | HOP-62 > 100 µM | HOP-92 > 100 µM | HT-29 > 100 µM | IGROV-1 > 100 µM | K562 > 100 µM | KM-20L2 > 100 µM | KM12 > 100 µM | LOX IMVI > 100 µM | LXFL 529 > 100 µM | M14 > 100 µM | M19-MEL > 100 µM | MOLT-4 > 100 µM | Malme-3M > 100 µM | NCI-H226 > 100 µM | NCI-H23 > 100 µM | NCI-H460 > 100 µM | NCI-H522 > 100 µM | OVCAR-3 > 100 µM | OVCAR-4 > 100 µM | OVCAR-5 > 100 µM | OVCAR-8 > 100 µM | RPMI-8226 > 100 µM | RXF 393 > 100 µM | SF-268 > 100 µM | SF-295 > 100 µM | SF-539 > 100 µM | SK-MEL-28 > 100 µM | SK-MEL-2 > 100 µM | SK-MEL-5 > 100 µM | SK-OV-3 > 100 µM | SN12C > 100 µM | SNB-19 > 100 µM | SNB-75 71.9 µM | SR > 100 µM | SW-620 > 100 µM | TK-10 > 100 µM | U-251 > 100 µM | UACC-257 > 100 µM | UACC-62 > 100 µM | UO-31 > 100 µM | XF498 > 100 µM
> 100 µM: HCT-15
